Data: patent US6391872B1, “Indazole bioisostere replacement of catechol in therapeutically active compounds” (Pfizer Inc, priority 1997, dated 2002)

melting point [°C]	Structure (SMILES)
81 to 89	CCc1nn(C2CCCC2)c2cc(C3(C#N)CCC(=O)CC3)ccc12 [Example 6, 1-(1-Cyclopentyl-3-ethyl-1H-indazol-6-yl)-4-oxo-cyclohexanecarbonitrile]
72 to 73	CCc1nn(-c2ccc(F)cc2)c2cc(Br)ccc12 [Example 24, 6-Bromo-3-ethyl-1-(4-fluorophenyl)-1H-indazole]
214 to 216	CCc1nn(-c2ccc(F)cc2)c2cc(C3=CCC(C(=O)O)CC3)ccc12 (stereo not drawn) [Example 28, 4-(3-ethyl-1-(4-fluorophenyl)-1H-indazol-6-yl)-cyclohex-3-ene-carboxylic acid]
